From paper PMC3969094 (Journal of Medicinal Chemistry, 2014)
Positions of bridges follow the written chain, without caps; N, C: chain ends. Non-standard residues stand in square brackets, D forms with d. Residues, ends and D or L forms follow the SMILES beside them. *: point of attachment. FITC = O=C1OC2(c3ccc(O)cc3Oc3cc(O)ccc32)c2ccc(NC(=S)*)cc21; Phe(3,4-Cl2) = N[C@@H](Cc1ccc(Cl)c(Cl)c1)C(=O)O; S5 = C=CCCC[C@](C)(N)C(=O)O; Ahx = NCCCCCC(=O)O

Columns and labels:
[1] = biological target: RPA70N (Homo sapiens, UniProt P27694); test: FPA direct binding of FITC-labeled peptides; details: stapled peptides, versus phenylalanine counterparts
[2] = biological target: RPA70C/32D/14; test: Direct binding FPA assay, selectivity; details: read-out: Kd for RPA70C/32D/14, FITC-labeled stapled peptide

| SMILES | increase in affinity by dichlorophenylalanine substitution [1] | Kd [2] |
| --- | --- | --- |
| CC(C)C[C@H](NC(=O)[C@H](C)NC(=O)[C@H](Cc1ccc(Cl)c(Cl)c1)NC(=O)[C@H](Cc1c[nH]c2ccccc12)NC(=O)[C@]1(C)CCCC=CCCC[C@](C)(NC(=O)[C@H](C)NC(=O)[C@@H](NC(=O)[C@H](Cc2ccccc2)NC(=O)[C@H](CC(N)=O)NC(=O)CCCCCNC(=S)Nc2ccc3c(c2)C(=O)OC32c3ccc(O)cc3Oc3cc(O)ccc32)[C@@H](C)O)C(=O)N[C@@H](CC(N)=O)C(=O)N[C@@H](CC(C)C)C(=O)N[C@@H](CCC(=O)O)C(=O)N1)C(N)=O [Peptide-39] ({FITC-Ahx}-NFTA[S5]NLE[S5]W[Phe(3,4-Cl2)]AL-NH2; staple 5-9) | 175 fold | 2400 nM |
| CC(C)C[C@H](NC(=O)[C@H](C)NC(=O)[C@H](Cc1ccc(Cl)c(Cl)c1)NC(=O)[C@H](Cc1c[nH]c2ccccc12)NC(=O)[C@]1(C)CCCC=CCCC[C@](C)(NC(=O)[C@H](C)NC(=O)[C@@H](NC(=O)[C@H](Cc2ccccc2)NC(=O)[C@H](CC(N)=O)NC(=O)CCCCCNC(=S)Nc2ccc3c(c2)C(=O)OC32c3ccc(O)cc3Oc3cc(O)ccc32)[C@@H](C)O)C(=O)N[C@@H](CC(=O)O)C(=O)N[C@@H](CC(C)C)C(=O)N[C@@H](CCC(=O)O)C(=O)N1)C(N)=O [Peptide-38] ({FITC-Ahx}-NFTA[S5]DLE[S5]W[Phe(3,4-Cl2)]AL-NH2; staple 5-9) | 31 fold |  |
